The test has as its target Histone-lysine N-methyltransferase EZH2 [Y641N] (UniProt Q15910, Y641N). Nature of the test: Test on EZH2 (Y641F) and EZH2 (Y641N) Inhibitory Activities.

Each structure is given as a SMILES string.

Chain of Histone-lysine N-methyltransferase EZH2 [Y641N] (Q15910 whole entry Y641N): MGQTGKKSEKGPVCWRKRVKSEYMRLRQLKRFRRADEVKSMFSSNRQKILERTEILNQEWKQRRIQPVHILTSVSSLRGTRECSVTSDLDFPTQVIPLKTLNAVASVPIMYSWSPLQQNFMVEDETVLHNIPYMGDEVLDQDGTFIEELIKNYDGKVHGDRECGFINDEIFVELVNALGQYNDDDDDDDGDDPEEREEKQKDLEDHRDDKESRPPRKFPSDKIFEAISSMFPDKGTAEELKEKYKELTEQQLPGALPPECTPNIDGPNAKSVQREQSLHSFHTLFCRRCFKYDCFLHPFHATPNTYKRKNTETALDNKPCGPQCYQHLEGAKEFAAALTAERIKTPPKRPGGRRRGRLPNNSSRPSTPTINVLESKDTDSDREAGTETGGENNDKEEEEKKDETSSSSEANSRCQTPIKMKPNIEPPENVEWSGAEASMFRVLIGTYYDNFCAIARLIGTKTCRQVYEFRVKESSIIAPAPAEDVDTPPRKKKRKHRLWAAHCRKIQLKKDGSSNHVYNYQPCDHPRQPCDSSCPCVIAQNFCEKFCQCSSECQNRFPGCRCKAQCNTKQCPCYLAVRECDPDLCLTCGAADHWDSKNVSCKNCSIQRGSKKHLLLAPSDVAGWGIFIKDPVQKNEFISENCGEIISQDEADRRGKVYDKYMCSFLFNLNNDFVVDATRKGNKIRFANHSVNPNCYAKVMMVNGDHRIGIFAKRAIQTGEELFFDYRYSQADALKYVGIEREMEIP
Protocol: ProceduresCompounds at different concentrations were dissolved in 100% DMSO and transferred to test plates, and the final concentration of DMSO was 1%. Enzyme solution and substrate SAM solution were prepared with 1-fold reaction buffer (optimized Tris buffer). 5 uL of enzyme solution was added to the test plate and wells only added with 5 uL of reaction buffer were used as negative control wells. […] 5 uL of receptor solution was added and the plate was incubated away from light at room temperature for 60 min. 10 uL of donor solution was added and the plate was incubated away from light at room temperature for 30 min. The endpoint values were read on the Envision and the IC50 was calculated.Data CalculationData were fitted by GraphPad Prism 5 software and inhibition rate was calculated according to equation (1)Inh %=(Max−Signal)/(Max−Min)×100 (1)IC50 was calculated using equation (2)Y=Bottom+(Top−Bottom)/(1+10^((Log IC 50 −X)×Hill Slope))Y: inhibition rate; X: concentration of the compound

`CCN(c1cc(O[C@H]2C[C@H](N3CCCCC3)C2)cc(C(=O)NCc2c(CO)cc(C)[nH]c2=O)c1C)C1CCC(F)(F)CC1` [US12390472, Example 95]: the IC50 (usually the concentration that gives 50% inhibition) is 3.1 nM.
